Laboratory results published in patent publication US4314028A, “Fermentation process for producing tallysomycin compounds” (priority 1980, dated 1982).

Experiments:
[1] = system: Mycobacterium smegmatis strain M6-3; experiment: Relative antibacterial potency, paper-disc agar diffusion method; type: cell-based; settings: relative to tallysomycin A standard=1000 mcg/mg
Experimental: The relative antibacterial potencies (tallysomycin A standard=1000 mcg/mg) of the tallysomycin derivatives were determined by the paper-disc agar diffusion method using Mycobacterium smegmatis strain M6-3 as the assay organism.

[2] = system: lysogenic bacterium E. coli W1709 (λ); experiment: Prophage induction of lysogenic bacterium (ILB activity); type: cell-based; settings: t/c ratio of plaque counts greater than 3.0
Experimental: The activity of prophage induction of lysogenic bacterium E. coli W1709 (λ) was determined according to the method disclosed by Lein et al. in Nature 196: 783-784 (1962). The plaque count was made on the agar plate containing test compound (t) and control plate (c). A t/c ratio of the plaque counts of greater than 3.0 was defined to be a significant level and lysogenic induction activity (ILB activity) was expressed by the minimum inducible concentration of the test compound.

Escherichia coli NIHJ = experiment: MIC, two-fold agar dilution method; type: cell-based; settings: nutrient agar
Experimental: (§1) The minimum inhibitory concentrations (MIC) of the semibiosynthetic tallysomycin derivatives of the present invention were determined against fungi and gram-positive, gram-negative and acid-fast bacteria by the two-fold agar dilution method. Nutrient agar was used for bacteria and Sabouraud agar for fungi. The results are shown in the table below comparatively with tallysomycin A and B.

[3] = system: Candida albicans IAM 4888; experiment: MIC, two-fold agar dilution method; type: cell-based; settings: Sabouraud agar
Experimental: as §1

Mycobacterium 607 = experiment: MIC, two-fold agar dilution method; type: cell-based; settings: nutrient agar
Experimental: as §1

Sarcina lutea PCI1001 = experiment: MIC, two-fold agar dilution method; type: cell-based; settings: nutrient agar
Experimental: as §1

[4] = system: Bacillus subtilis PCI 219; experiment: MIC, two-fold agar dilution method; type: cell-based; settings: nutrient agar
Experimental: as §1

Proteus mirabilis A9554 = experiment: MIC, two-fold agar dilution method; type: cell-based; settings: nutrient agar
Experimental: as §1

[5] = system: Aspergillus fumigatus IAM 2593; experiment: MIC, two-fold agar dilution method; type: cell-based; settings: Sabouraud agar
Experimental: as §1

[6] = system: Staphylococcus aureus Smith; experiment: MIC, two-fold agar dilution method; type: cell-based; settings: nutrient agar
Experimental: as §1

Melanotic melanoma B16 = experiment: Antitumor activity in mice, melanotic melanoma B16; type: in vivo, BDF1 mice; settings: copper-chelated form unless otherwise stated; for Antitumor activity B16 (ID50): ip, once daily 9 days, 50% inhibition of tumor growth, day 16, 23040 min; for Antitumor therapeutic index B16: single dose LD50/ID50
From the text: (§2) The antitumor activity of the tallysomycin derivatives was examined in four experimental tumor systems in mice. Lymphocytic leukemia P388 and Lewis lung carcinoma were implanted intraperitoneally into BDF1 mice of either sex at an inoculum size of 3×10^5 and 5×10^5 cells per mouse, respectively. Sarcoma 180 ascites tumor was inoculated intraperitoneally into male dd-strain mice with […] per mouse. Melanotic melanoma B16 was implanted subcutaneously into BDF1 mice with 5×10^5 cells per mouse. Twenty-four hours after the implantation of tumor cells, graded doses of test compounds were administered to mice intraperitoneally in an injection volume of 0.2 ml. per 10 grams of body weight. Test compounds were given once daily for 9 days (qd 1→9 schedule) except for the mice inoculated with Lewis lung carcinoma which were treated for 11 days (qd 1→11). Death or survival of the treated and non-treated (control) animals was recorded daily during the observation period of 45 days after the implantation of tumor cells, and the median survival time was calculated for each of the test (T) and control (C) groups. […] The actual dose giving a T/C of 125% was estimated by linear regression analysis and defined as the effective dose 125 or ED125. The effective dose 150 (ED150) was employed for the evaluation of antitumor effect against Sarcoma 180. In the B16 melanoma experiment the tumor size was measured on day 16 after tumor inoculation, and the dose giving 50% inhibition of tumor growth (ID50) was calculated from regression lines.
(§3) The antitumor therapeutic index was calculated for each derivative from the ratio of toxicity and antitumor activity.

[7] = system: Lymphocytic leukemia P388; experiment: animal or person; type: in vivo, BDF1 mice; settings: copper-chelated form unless otherwise stated; for Antitumor activity P388 (ED125): ip, once daily 9 days, dose giving T/C survival of 125%; for Antitumor therapeutic index P388: single dose LD50/ED125
From the text: as §2, §3

Sarcoma 180 = experiment: animal or person; type: in vivo, dd-strain mice; settings: copper-chelated form unless otherwise stated; for Antitumor activity S180 (ED150): ip, once daily 9 days, effective dose 150, survival; for Antitumor therapeutic index S180: single dose LD50/ED150
From the text: as §2, §3

[8] = Acute toxicity, single dose LD50; type: in vivo, dd mice; settings: ip, 30 days observation, copper-chelated form unless otherwise stated
Experimental: Graded doses of test compounds were administered intraperitoneally to groups of dd mice. The injection was given one time only or once daily for 9 consecutive days. Death or survival of the animals was recorded for 30 days after the last dose of test compound to calculate the single or multiple median lethal dose (LD50).

| SMILES | Antibacterial potency [1] | ILB activity (minimum inducible concentration) [2] | minimum inhibitory concentration (MIC) (Escherichia coli NIHJ) | minimum inhibitory concentration (MIC) [3] | minimum inhibitory concentration (MIC) (Mycobacterium 607) | minimum inhibitory concentration (MIC) (Sarcina lutea PCI1001) | minimum inhibitory concentration (MIC) [4] | minimum inhibitory concentration (MIC) (Proteus mirabilis A9554) | minimum inhibitory concentration (MIC) [5] | minimum inhibitory concentration (MIC) [6] | Antitumor activity B16 (ID50) (Melanotic melanoma B16) | Antitumor therapeutic index B16 (Melanotic melanoma B16) | Antitumor activity P388 (ED125) [7] | Antitumor therapeutic index P388 [7] | Antitumor activity S180 (ED150) (Sarcoma 180) | Antitumor therapeutic index S180 (Sarcoma 180) | LD50 single dose [8] |
| --- | --- | --- | --- | --- | --- | --- | --- | --- | --- | --- | --- | --- | --- | --- | --- | --- | --- |
| Cc1c(N)nc([C@H](CC(N)=O)NC[C@H](N)C(N)=O)nc1C(=O)N[C@H](C(=O)N[C@H](C)[C@@H](O)CC(=O)N[C@H](C(=O)NC(O[C@@H]1O[C@@H](C)[C@@H](N)[C@@H](O)[C@H]1O)C(O)c1nc(-c2nc(C(=O)NCCCC(N)CC(=O)NCCCNCCCCN)cs2)cs1)[C@@H](C)O)[C@H](O[C@@H]1O[C@@H](CO)[C@@H](O)[C@H](O)[C@@H]1O[C@H]1O[C@H](CO)[C@@H](O)[C@H](OC(N)=O)[C@@H]1O)c1c[nH]cn1 (some centres unmarked) [Tallysomycin A, reference compound] | 1,000 μ/mg | 0.00125 µg/mL | 0.05 | 12.5 | 0.2 | 0.05 | < 0.003 | 0.4 | 1.6 | 0.1 | – | – | – | – | – | – | – |
| Cc1c(N)nc([C@H](CC(N)=O)NC[C@@H](N)C(N)=O)nc1C(=O)N[C@H](C(=O)N[C@H](C)[C@@H](O)CC(=O)N[C@@H](C(=O)NC(O[C@@H]1O[C@@H](C)[C@@H](N)[C@@H](O)[C@H]1O)C(O)c1nc(-c2nc(C(=O)NCCCNCCCCN)cs2)cs1)[C@@H](C)O)C(O[C@@H]1O[C@@H](CO)[C@H](O)[C@@H](O)[C@@H]1O[C@H]1O[C@H](CO)[C@@H](O)[C@@H](OC(N)=O)[C@@H]1O)c1cnc[nH]1 (some centres unmarked) [Tallysomycin B, reference compound] | 900 μ/mg | 0.01 µg/mL | 0.2 | 6.3 | 0.2 | 0.4 | 0.006 | 0.2 | 0.8 | 0.4 | – | – | – | – | – | – | – |
| Cc1c(N)nc(C(CC(N)=O)NCC(N)C(N)=O)nc1C(=O)NC(C(=O)NC(C)C(O)CC(=O)NC(C(=O)NC(OC1OC(C)C(N)C(O)C1O)C(O)c1nc(-c2nc(C(=O)NCCCC(N)CC(=O)NCCCN)cs2)cs1)C(C)O)C(OC1OC(CO)C(O)C(O)C1OC1OC(CO)C(O)C(OC(N)=O)C1O)c1c[nH]cn1 (centres unmarked) [Tallysomycin S1a] | 1,075 μ/mg | 0.16 µg/mL | 0.1 | 3.1 | 0.012 | 0.1 | < 0.003 | 0.4 | 0.8 | 0.4 | 0.84 mg/kg/day | 30 | 1.2 mg/kg/day | 21 | 0.07 mg/kg/day | 357 | 25 mg/kg/day |
| Cc1c(N)nc(C(CC(N)=O)NCC(N)C(N)=O)nc1C(=O)NC(C(=O)NC(C)C(O)CC(=O)NC(C(=O)NC(OC1OC(C)C(N)C(O)C1O)C(O)c1nc(-c2nc(C(=O)NCC(O)CN)cs2)cs1)C(C)O)C(OC1OC(CO)C(O)C(O)C1OC1OC(CO)C(O)C(OC(N)=O)C1O)c1c[nH]cn1 (centres unmarked) [Tallysomycin S4b] | 405 μ/mg | – | 0.4 | 25 | 0.003 | 3.1 | 0.006 | 0.4 | 0.8 | 0.8 | 0.50 mg/kg/day | 26 | > 3.0 mg/kg/day | < 4 | 0.13 mg/kg/day | 100 | 13 mg/kg/day |
| Cc1c(N)nc(C(CC(N)=O)NCC(N)C(N)=O)nc1C(=O)NC(C(=O)NC(C)C(O)CC(=O)NC(C(=O)NC(OC1OC(C)C(N)C(O)C1O)C(O)c1nc(-c2nc(C(=O)NCCCC(N)CC(=O)NCCCN(CCO)CCO)cs2)cs1)C(C)O)C(OC1OC(CO)C(O)C(O)C1OC1OC(CO)C(O)C(OC(N)=O)C1O)c1c[nH]cn1 (centres unmarked) [Tallysomycin S8a] | 550 μ/mg | 0.005 µg/mL | 0.1 | 12.5 | 0.1 | 0.4 | 0.006 | 0.4 | 0.8 | 0.2 | – | – | 0.78 mg/kg/day | 54 | – | – | 42 mg/kg/day |
| CNCCCNC(=O)CC(N)CCCNC(=O)c1csc(-c2csc(C(O)C(NC(=O)C(NC(=O)CC(O)C(C)NC(=O)C(NC(=O)c3nc(C(CC(N)=O)NCC(N)C(N)=O)nc(N)c3C)C(OC3OC(CO)C(O)C(O)C3OC3OC(CO)C(O)C(OC(N)=O)C3O)c3c[nH]cn3)C(C)O)OC3OC(C)C(N)C(O)C3O)n2)n1 (centres unmarked) [Tallysomycin S11a] | 570 μ/mg | 0.08 µg/mL | 0.1 | 1.6 | 0.1 | 0.2 | 0.025 | 0.2 | 0.8 | 0.8 | – | – | 0.60 mg/kg/day | 30 | – | – | 18 mg/kg/day |
| Cc1c(N)nc(C(CC(N)=O)NCC(N)C(N)=O)nc1C(=O)NC(C(=O)NC(C)C(O)CC(=O)NC(C(=O)NC(OC1OC(C)C(N)C(O)C1O)C(O)c1nc(-c2nc(C(=O)NCCCC(N)CC(=O)NCCCNC(C)c3ccccc3)cs2)cs1)C(C)O)C(OC1OC(CO)C(O)C(O)C1OC1OC(CO)C(O)C(OC(N)=O)C1O)c1c[nH]cn1 (centres unmarked) [Tallysomycin S14a] | 1,300 μ/mg | 0.01 µg/mL | 0.2 | 50 | 0.1 | 0.8 | 0.1 | 3.1 | 3.1 | 0.8 | – | – | – | – | – | – | – |
